Like-named read-outs stand apart in the source and are kept apart here.
Key:
Type in all cases: biochemical
JAK1 = JAK1 (Homo sapiens (Human), UniProt P23458); test: JAK1 Inhibition Assay (Example B, Omnia kinase fluorescence peptide substrate assay)
In short: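 Recombinant human JAK1 (12.5 nM) with 1 mM ATP and 8 μM Omnia Y12 Sox-peptide in 25 mM HEPES pH 7.4, 10 mM MgCl2, 0.01% Triton X-100, 1 mM DTT, 2% DMSO final. Phosphorylation read kinetically (ex 360/em 485 nm, 45 min); IC50 from 4-parameter fit of percent of control.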

Human Tyk2 kinase domain = Human Tyk2 kinase domain (Homo sapiens (Human), UniProt P29597); test: Tyk2 Inhibition Assay (Example A, Omnia kinase fluorescence peptide substrate assay); details: TYK2 Enzyme IC50 1 mM ATP, averaged IC50 ranges
Sequence of Human Tyk2 kinase domain (P29597 886-1187): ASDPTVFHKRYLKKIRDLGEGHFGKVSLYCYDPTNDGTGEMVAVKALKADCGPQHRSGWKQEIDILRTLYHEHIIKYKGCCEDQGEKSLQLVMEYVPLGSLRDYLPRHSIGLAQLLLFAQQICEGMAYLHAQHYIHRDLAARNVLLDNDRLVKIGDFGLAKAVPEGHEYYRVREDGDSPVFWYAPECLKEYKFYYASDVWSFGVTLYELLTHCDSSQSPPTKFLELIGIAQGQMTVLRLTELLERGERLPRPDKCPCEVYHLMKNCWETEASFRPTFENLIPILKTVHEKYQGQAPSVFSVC
In short: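 Omnia Sox-peptide kinetic fluorescence assay (ex 360/em 485 nm, read every 50 s for 45 min) with 1 nM human Tyk2 kinase domain (aa 886–1187, His tag cleaved, baculovirus-expressed), 1 mM ATP, 8 μM Omnia Y12 peptide, in 25 mM HEPES pH 7.4, 10 mM MgCl2, 0.01% Triton X-100, 1 mM DTT, 2% DMSO. IC50 from 4-parameter logistic fit of percent of control.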

JAK2 = JAK2 (Homo sapiens (Human), UniProt O60674); test: JAK2 Inhibition Assay (Example C, Omnia kinase fluorescence peptide substrate assay); details: JAK2 Enzyme IC50 1 mM ATP, averaged IC50 ranges
Sequence of JAK2 (O60674 whole entry): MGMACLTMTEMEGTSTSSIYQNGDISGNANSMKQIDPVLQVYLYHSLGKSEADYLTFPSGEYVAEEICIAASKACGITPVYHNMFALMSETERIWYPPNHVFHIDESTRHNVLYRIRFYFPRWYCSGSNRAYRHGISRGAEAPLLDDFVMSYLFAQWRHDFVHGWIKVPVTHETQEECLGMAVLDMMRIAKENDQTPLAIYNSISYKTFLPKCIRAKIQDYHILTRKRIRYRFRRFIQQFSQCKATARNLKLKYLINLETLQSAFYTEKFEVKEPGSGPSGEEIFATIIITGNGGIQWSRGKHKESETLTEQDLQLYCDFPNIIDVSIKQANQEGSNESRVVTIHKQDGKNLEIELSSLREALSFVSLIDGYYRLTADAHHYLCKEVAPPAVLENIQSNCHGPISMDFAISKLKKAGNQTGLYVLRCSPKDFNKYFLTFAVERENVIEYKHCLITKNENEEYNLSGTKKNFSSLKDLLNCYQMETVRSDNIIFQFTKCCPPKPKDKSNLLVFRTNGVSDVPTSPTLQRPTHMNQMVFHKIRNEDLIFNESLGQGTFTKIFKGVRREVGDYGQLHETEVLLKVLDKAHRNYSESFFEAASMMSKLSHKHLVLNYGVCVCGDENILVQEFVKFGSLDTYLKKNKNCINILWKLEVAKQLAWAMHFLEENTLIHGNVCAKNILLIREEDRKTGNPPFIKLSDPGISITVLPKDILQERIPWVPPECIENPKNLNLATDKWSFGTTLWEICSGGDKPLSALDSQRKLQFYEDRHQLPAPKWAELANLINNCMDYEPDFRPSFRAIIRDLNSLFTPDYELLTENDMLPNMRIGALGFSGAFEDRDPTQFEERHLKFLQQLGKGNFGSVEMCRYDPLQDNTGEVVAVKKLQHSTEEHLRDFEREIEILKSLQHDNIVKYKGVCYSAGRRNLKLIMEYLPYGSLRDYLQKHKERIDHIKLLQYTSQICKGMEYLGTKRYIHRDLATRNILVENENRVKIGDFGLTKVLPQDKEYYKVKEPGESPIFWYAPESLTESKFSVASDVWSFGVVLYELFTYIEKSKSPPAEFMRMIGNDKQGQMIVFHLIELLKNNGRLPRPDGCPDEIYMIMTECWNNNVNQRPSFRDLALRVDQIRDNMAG
In short: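 4 nM JAK2 with 1 mM ATP and 10 μM Omnia Y7 peptide in 25 mM HEPES pH 7.4, 10 mM MgCl2, 0.01% Triton X-100, 1 mM DTT, 2% DMSO. Sox fluorescence (ex 360/em 485 nm) read every 50 s for 45 min; IC50 from 4-parameter fit of percent of control.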

JAK3 = JAK3 (Homo sapiens (Human), UniProt P52333); test: JAK3 Inhibition Assay (Example D, Omnia kinase fluorescence peptide substrate assay)
Sequence of JAK3 (P52333 whole entry): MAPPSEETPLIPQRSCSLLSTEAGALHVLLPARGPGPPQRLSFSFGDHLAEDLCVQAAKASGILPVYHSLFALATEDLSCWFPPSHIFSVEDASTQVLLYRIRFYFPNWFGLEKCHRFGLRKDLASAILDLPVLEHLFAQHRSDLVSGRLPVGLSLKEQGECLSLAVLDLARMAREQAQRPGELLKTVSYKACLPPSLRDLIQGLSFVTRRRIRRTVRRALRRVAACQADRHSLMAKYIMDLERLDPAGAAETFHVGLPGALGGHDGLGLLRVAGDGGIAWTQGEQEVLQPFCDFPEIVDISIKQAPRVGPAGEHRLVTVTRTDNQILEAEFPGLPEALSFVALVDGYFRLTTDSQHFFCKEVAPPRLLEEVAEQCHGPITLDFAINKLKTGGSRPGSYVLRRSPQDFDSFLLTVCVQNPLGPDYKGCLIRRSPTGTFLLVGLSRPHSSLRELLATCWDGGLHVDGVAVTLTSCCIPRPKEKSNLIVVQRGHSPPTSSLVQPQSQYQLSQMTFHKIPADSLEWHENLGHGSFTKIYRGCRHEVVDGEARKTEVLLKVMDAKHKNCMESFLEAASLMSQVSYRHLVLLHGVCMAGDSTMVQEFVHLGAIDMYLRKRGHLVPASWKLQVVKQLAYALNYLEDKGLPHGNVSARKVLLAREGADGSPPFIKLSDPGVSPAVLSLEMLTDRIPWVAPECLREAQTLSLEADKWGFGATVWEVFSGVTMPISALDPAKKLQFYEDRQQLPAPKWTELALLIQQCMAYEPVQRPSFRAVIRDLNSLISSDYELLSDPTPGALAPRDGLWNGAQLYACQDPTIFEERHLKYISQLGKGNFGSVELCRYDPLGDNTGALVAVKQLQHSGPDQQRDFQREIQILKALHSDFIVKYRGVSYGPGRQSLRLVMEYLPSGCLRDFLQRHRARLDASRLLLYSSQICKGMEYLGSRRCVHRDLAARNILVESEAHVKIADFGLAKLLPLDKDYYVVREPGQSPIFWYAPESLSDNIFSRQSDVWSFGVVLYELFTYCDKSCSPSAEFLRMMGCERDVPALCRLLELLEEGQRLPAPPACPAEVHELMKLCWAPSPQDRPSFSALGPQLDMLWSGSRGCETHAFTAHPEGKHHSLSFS
In short: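 Mixture held 2 nM JAK3, 1 mM ATP and 10 μM Omnia Y7 peptide in 25 mM HEPES pH 7.4, 10 mM MgCl2, 0.01% Triton X-100, 1 mM DTT, 2% DMSO final. Sox fluorescence (ex 360/em 485 nm) was read every 50 s for 45 min. IC50 came from a 4-parameter logistic fit of percent of control.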

[1] = JAK1 Enzyme IC50 1 mM ATP, 1 mM ATP, averaged IC50 ranges

Sequence of JAK1 (P23458 whole entry): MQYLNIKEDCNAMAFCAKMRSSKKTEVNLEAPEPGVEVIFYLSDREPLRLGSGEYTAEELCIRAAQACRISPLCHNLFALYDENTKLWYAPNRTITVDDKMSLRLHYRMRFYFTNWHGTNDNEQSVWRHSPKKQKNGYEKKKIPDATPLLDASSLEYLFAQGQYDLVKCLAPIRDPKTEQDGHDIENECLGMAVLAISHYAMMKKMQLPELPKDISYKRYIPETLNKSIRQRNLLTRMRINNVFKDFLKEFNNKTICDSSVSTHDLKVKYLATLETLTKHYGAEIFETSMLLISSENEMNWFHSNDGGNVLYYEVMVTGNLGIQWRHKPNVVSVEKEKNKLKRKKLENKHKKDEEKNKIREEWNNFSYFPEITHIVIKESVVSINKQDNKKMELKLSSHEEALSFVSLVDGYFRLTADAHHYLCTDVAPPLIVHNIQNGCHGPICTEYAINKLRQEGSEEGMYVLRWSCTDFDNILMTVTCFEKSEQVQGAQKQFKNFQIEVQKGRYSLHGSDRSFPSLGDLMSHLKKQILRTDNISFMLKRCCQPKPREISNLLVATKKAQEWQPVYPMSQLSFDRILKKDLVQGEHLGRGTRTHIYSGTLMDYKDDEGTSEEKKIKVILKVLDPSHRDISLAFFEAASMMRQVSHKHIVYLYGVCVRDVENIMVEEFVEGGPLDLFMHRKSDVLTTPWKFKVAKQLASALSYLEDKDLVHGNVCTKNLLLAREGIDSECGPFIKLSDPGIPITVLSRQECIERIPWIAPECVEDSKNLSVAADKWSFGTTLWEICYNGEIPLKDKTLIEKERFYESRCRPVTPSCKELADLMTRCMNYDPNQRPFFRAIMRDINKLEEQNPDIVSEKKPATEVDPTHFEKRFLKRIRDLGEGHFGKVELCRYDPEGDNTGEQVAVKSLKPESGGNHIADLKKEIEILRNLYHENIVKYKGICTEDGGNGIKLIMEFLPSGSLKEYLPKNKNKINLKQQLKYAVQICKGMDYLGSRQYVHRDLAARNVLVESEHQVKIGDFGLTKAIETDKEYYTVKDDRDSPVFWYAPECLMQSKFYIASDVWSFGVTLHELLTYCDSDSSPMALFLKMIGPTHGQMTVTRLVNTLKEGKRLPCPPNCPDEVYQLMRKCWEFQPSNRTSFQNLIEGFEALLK

Row | IC50 (JAK1; [1]) [nM] | IC50 (Human Tyk2 kinase domain) [nM] | IC50 (JAK2) [nM] | IC50 (JAK3) [µM] | IC50 (JAK1) [nM] | SMILES
1 | 1000 to 10000 | 100 to 1000 | 100 to 1000 | 1 to 10 |  | C[C@@H]1CC[C@@H]1n1cc(-c2nc(-c3cnn(C[C@@H](O)CO)c3)cn3nccc23)cn1 [Example 217, (R)-3-(4-(4-(1-(cis-2-methylcyclobutyl)-1H-pyrazol-4-yl)pyrazolo[1,5-a]pyrazin-6-yl)-1H-pyrazol-1-yl)propane-1,2-diol]
2 |  | 10 to 100 | 10 to 100 | 1 to 10 | 100 to 1000 | CC[C@H](CC(F)(F)F)n1cc(-c2nc(-c3cnn(C(CO)CO)c3)cn3nccc23)cn1 [Example 211, (R)-2-(4-(4-(1-(1,1,1-trifluoropentan-3-yl)-1H-pyrazol-4-yl)pyrazolo[1,5-a]pyrazin-6-yl)-1H-pyrazol-1-yl)propane-1,3-diol]
3 |  | 10 to 100 | 10 to 100 | 1 to 10 | 100 to 1000 | CCC(CC)n1cc(-c2nc(-c3cnn(CC(O)CCO)c3)cn3nccc23)cn1 (centres unmarked) [Example 63, 4-(4-(4-(1-(pentan-3-yl)-1H-pyrazol-4-yl)pyrazolo[1,5-a]pyrazin-6-yl)-1H-pyrazol-1-yl)butane-1,3-diol]
4 | 1000 to 10000 | 10 to 100 | 10 to 100 | 1 to 10 |  | CCC(CC)n1cc(-c2nc(-c3cnn(C[C@H](O)CN(C)C)c3)cn3nccc23)cn1 [Example 99, (R)-1-(dimethylamino)-3-(4-(4-(1-(pentan-3-yl)-1H-pyrazol-4-yl)pyrazolo[1,5-a]pyrazin-6-yl)-1H-pyrazol-1-yl)propan-2-ol]
5 |  | 100 to 1000 | 100 to 1000 | 1 to 10 | 1000 to 10000 | CCC(CC(F)(F)F)n1cc(-c2nc(-c3cnn(C(CO)CO)c3)cn3nccc23)cn1 (single isomer, unassigned) [Example 212]
6 | 100 to 1000 | 10 to 100 | 10 to 100 | 1 to 10 |  | CCC(CC)n1cc(-c2nc(-c3cnn([C@H](C)[C@@H](C)O)c3)cn3nccc23)cn1 (single isomer, unassigned) [Example 156]
7 |  | 10 to 100 | 10 to 100 | 1 to 10 | 100 to 1000 | CCC(CC)n1cc(-c2nc(-c3cnn(C[C@H](O)COC)c3)cn3nccc23)cn1 [Example 108, (S)-1-methoxy-3-(4-(4-(1-(pentan-3-yl)-1H-pyrazol-4-yl)pyrazolo[1,5-a]pyrazin-6-yl)-1H-pyrazol-1-yl)propan-2-ol]
8 | 1000 to 10000 | 10 to 100 | 10 to 100 | 1 to 10 |  | CCC(CC)n1cc(-c2nc(-c3cnn(C[C@H](O)CN4CC(OC)C4)c3)cn3nccc23)cn1 [Example 103, (R)-1-(3-methoxyazetidin-1-yl)-3-(4-(4-(1-(pentan-3-yl)-1H-pyrazol-4-yl)pyrazolo[1,5-a]pyrazin-6-yl)-1H-pyrazol-1-yl)propan-2-ol]
9 |  | 10 to 100 | 10 to 100 | 1 to 10 | 100 to 1000 | CCC(CC)n1cc(-c2nc(-c3cnn(C[C@H](O)CC)c3)cn3nccc23)cn1 [Example 115, (R)-1-(4-(4-(1-(pentan-3-yl)-1H-pyrazol-4-yl)pyrazolo[1,5-a]pyrazin-6-yl)-1H-pyrazol-1-yl)butan-2-ol]
10 |  | 10 to 100 | 10 to 100 | 1 to 10 | 100 to 1000 | CCC(CC)n1cc(-c2nc(-c3cnn(C4CN(C(=O)N(C)C)C4)c3)cn3nccc23)cn1 [Example 40, N,N-dimethyl-3-(4-(4-(1-(pentan-3-yl)-1H-pyrazol-4-yl)pyrazolo[1,5-a]pyrazin-6-yl)-1H-pyrazol-1-yl)azetidine-1-carboxamide]
11 |  | 100 to 1000 | 100 to 1000 | 1 to 10 | 100 to 1000 | CCC(CC)n1cc(-c2nc(-c3cnn(CC4(O)CCN(C(C)=O)CC4)c3)cn3nccc23)cn1 [Example 185, 1-(4-hydroxy-4-((4-(4-(1-(pentan-3-yl)-1H-pyrazol-4-yl)pyrazolo[1,5-a]pyrazin-6-yl)-1H-pyrazol-1-yl)methyl)piperidin-1-yl)ethanone]
